The record followed here is patent publication US12398143B2, “Imidazopyrazine derivatives and the use thereof as medicament” (Boehringer Ingelheim International GmbH, priority 2019, dated 2025).

One data set concerns the target T1, NMDA NR1/NR2B receptor (Homo sapiens, UniProt Q05586+Q13224).
T1 construct: host or cells: HEK293, tetracycline-inducible
Description: NMDA NR1/NR2B FLIPR calcium assay in HEK293 cells. Type of data set: cell-based. The following applies: HEK293 with tetracyclin-inducible NR1/NR2B; 20 μM glycine/1 μM glutamate; compounds of the invention; read-out: IC50 (in vitro affinity as obtained in the FLIPR assay). As for the experimental part: A human HEK293 cell line with tetracyclin-inducible expression of NMDA NR1/NR2B receptor was used as a test system for compound efficacy and potency. The cell line was purchased from ChanTest, Catalog #CT6121. Compound activity was determined by measuring the effect of compounds on intracellular calcium concentration induced by glycine/glutamate agonism in a FLIPRtetra system (Molecular Devices).
The cells were obtained as frozen cells in cryo-vials and stored until use at −150° C. Cells were grown in culture medium (DMEM/F12, 10% FBS, 5 μg/mL Blasticidin, 150 μg/mL Zeozin, 500 μg/mL Geneticin). […] For sub-culturing the cells were detached from flasks by Versene. For the assay, cells were detached, washed twice with induction medium (DMEM/F12 without glutamine, 10% FBS, 2 μg/mL Tetracycline, 2 mM Ketamine) and seeded to 384 well pure coat amine plates (BD 359324, 50000 cells per well in 50 μl) 48 h prior to assay in induction medium.
The test compounds were dissolved in 100% DMSO at a concentration of 10 mM and in a first step diluted in DMSO to a concentration of 5 mM, followed by serial dilution steps in 100% DMSO. Dilution factor and number of dilution steps may vary according to needs. Typically 8 different concentrations by 1:5 dilutions were prepared in duplicate, further intermediate dilutions (1:37.5) of the substances were carried out with aqueous assay buffer (137 mM NaCl, 4 mM KCl, 1.8 mM CaCl, 10 mM HEPES, 10 mM Glucose, pH 7,4) resulting in a compound concentration 3 times above the final test concentration and DMSO at 2.7% resulting in 0.9% final DMSO concentration in the assay.
At the assay day cells were washed 3× with assay buffer, 10 μL buffer remained in the wells after washing. 10 μL Ca kit loading buffer (AAT Bioquest) was added to the cells and the plates were incubated with lid for 60 minutes at r.t. 20 μl assay buffer containing 60 μM glycine (20 μM final) and 3 μM glutamate (1 μM final) was added to column 1-23. Fluorescence (indicating the calcium influx as a result of the NR1/NR2B ion channel activation) was read on the FLIPRtetra device for 60 seconds to monitor the glutamate induced effects. After 2 minutes 20 μL of compound or controls (row 1-22) in assay buffer were carefully added to the wells. […] The average of 2 measurements at 5 minutes and 5 min 10 seconds after compound addition is calculated and further used for IC50 calculations. Each assay microtiter plate contained wells (in column 23 or 24) with DMSO controls instead of compound as controls for glycine/glutamate induced fluorescence (high controls) and wells with 1 μM of a reference NR2b NAM as low controls (Compound 22; reference: Layton, Mark E et al, ACS Chemical Neuroscience 2011, 2(7), 352-362).
The output file of the reader contains the well number and measured average fluorescence units. For data evaluation and calculation, the measurement of the low control was set as 0% control and the measurement of the high control was set as 100% control. The IC50 values were calculated using the standard 4 parameter logistic regression formula. Calculation: [y=(a−d)/(1+(x/c)^B)+d], a=low value, d=high value; x=conc M; c=IC50 M; b=slope.

Another data set has as its target T2, human MDR1 (P-gp) (Homo sapiens, UniProt P08183).
T2 construct: expressed in transfected cells; host or cells: MDCKII (Madin-Darby canine kidney)
Description: MDCK assay MDR-1 (p-GP) permeability. Type of data set: in vitro ADME. The following applies: dog, MDCK-MDR1 monolayers; for efflux ratio at 2 h: pH 7.4, Papp (b-a)/Papp (a-b); for Papp A→B at 2 h: apical-to-basal, pH 7.4, 1 or 10 μM. The method, then: The MDCK assays provide information on the potential of a compound to pass the blood brain barrier. Permeability measurements across polarized, confluent MDCK-MDR1 cell monolayers grown on permeable filter supports are used as an in vitro absorption model: apparent permeability coefficients (PE) of the compounds across the MDCK-MDR1 cell monolayers are measured (pH 7.4, 37° C.) in apical-to-basal (AB) and basal-to-apical (BA) transport direction. The AB permeability (PEAB) represents drug absorption from the blood into the brain and the BA permeability (PEBA) drug efflux from the brain back into the blood via both, passive permeability as well as active transport mechanisms mediated by efflux and uptake transporters that are expressed on the MDCK-MDR1 cells, predominantly by the overexpressed human MDR1. Identical or similar permeabilities in both transport directions indicate passive permeation, vectorial permeability points to additional active transport mechanisms. Higher PEBA than PEAB (PEBA/PEAB>5) indicates the involvement of active efflux mediated by MDR1, which might compromise the goal to achieve sufficient brain exposure. Therefore, this assay provides valuable support for selection of compounds applicable for further in vivo testing. High permeability not limited by efflux at the blood brain barrier is a favourable characteristic for compounds that are to be used for drugs acting primarily in the CNS. Consequently, to ensure high permeability at the blood brain barrier, it is highly preferred to minimize the efflux (efflux<5) at MDR1 transporter.
Apparent permeability coefficients (Papp) of the compounds across the MDCK-MDR1 monolayers (MDCKII cells transfected with human MDR1 cDNA expression plasmid) are measured in apical-to-basal (AB) and basal-to-apical (BA) direction.
MDCK-MDR1 cells (6×10^5 cells/cm^2) are seeded on filter inserts (Corning, Transwell, polycarbonate, 0.4 μm pore size) and cultured for 9 to 10 days. Compounds dissolved in DMSO stock solution (1-20 mM) are diluted with HTP-4 aqueous buffer (128.13 mM NaCl, 5.36 mM KCl, 1 mM MgSO4, 1.8 mM CaCl2), 4.17 mM NaHCO3, 1.19 mM Na2HPO4, 0.41 mM NaH2PO4, 15 mM HEPES, 20 mM glucose, pH 7.4) supplemented with 0.25% BSA to prepare the transport solutions (final concentration: 1 or 10 μM, final DMSO <=0.5%). The transport solution is applied to the apical or basolateral donor side for measuring A-B or B-A permeability, respectively. The receiver side contains HTP-4 buffer supplemented with 0.25% BSA. Samples are collected at the start and end of experiment from the donor and at various time intervals for up to 2 hours also from the receiver side for concentration measurement by HPLC-MS/MS.
Sampled receiver volumes are replaced with fresh receiver solution. Efflux ratio is calculated dividing the Papp (b-a) values by the Papp (a-b) values.

A short description of data set [1]: Metabolic stability in human liver microsomes. The data set is classed as in vitro ADME. To be noted: pooled human liver microsomes, pH 7.6, 37° C., 1 mg/mL microsomal protein, 1 μM compound, NADPH 1 mM, read-out: Half-life - t½ human liver microsomes. An excerpt:
Stability in human liver microsomes refers to the susceptibility of compounds to bio-transformation in the context of selecting and/or designing drugs with favorable pharmacokinetic properties. The primary site of metabolism for many drugs is the liver. Human liver microsomes contain the cytochrome P450s (CYPs), and thus represent a model system for studying drug metabolization in vitro. Enhanced stability in human liver microsomes is associated with several advantages, including increased bioavailability and adequate half-life, which can enable lower and less frequent dosing of patients. Thus, enhanced stability in human liver microsomes is a favorable characteristic for compounds that are to be used for drugs.
The metabolic degradation of the test compound was assayed at 37° C. with pooled human liver microsomes. The final incubation volume of […] per time point contains TRIS buffer pH 7.6 at room temperature (0.1 M), magnesium chloride (5 mM aqueous solution), microsomal protein (1 mg/mL for human) and the test compound at a final concentration of 1 μM. Following a short preincubation period at 37° C., the reactions were initiated by addition of betanicotinamide adenine dinucleotide phosphate, reduced form (NADPH, 1 mM), and terminated by transferring an aliquot into solvent after different time points. After centrifugation (10000 g, 5 min), an aliquot of the supernatant was assayed by LC-MS/MS for the amount of parent compound. The half-life was determined by the slope of the semi-logarithmic plot of the concentration-time profile.
(Microsomes from liver hold many membrane-bound enzymes, among them those of drug oxidation.)

Molecules are shown by their SMILES.

T1 sequence (Q13224 27-1484, other chains not shown): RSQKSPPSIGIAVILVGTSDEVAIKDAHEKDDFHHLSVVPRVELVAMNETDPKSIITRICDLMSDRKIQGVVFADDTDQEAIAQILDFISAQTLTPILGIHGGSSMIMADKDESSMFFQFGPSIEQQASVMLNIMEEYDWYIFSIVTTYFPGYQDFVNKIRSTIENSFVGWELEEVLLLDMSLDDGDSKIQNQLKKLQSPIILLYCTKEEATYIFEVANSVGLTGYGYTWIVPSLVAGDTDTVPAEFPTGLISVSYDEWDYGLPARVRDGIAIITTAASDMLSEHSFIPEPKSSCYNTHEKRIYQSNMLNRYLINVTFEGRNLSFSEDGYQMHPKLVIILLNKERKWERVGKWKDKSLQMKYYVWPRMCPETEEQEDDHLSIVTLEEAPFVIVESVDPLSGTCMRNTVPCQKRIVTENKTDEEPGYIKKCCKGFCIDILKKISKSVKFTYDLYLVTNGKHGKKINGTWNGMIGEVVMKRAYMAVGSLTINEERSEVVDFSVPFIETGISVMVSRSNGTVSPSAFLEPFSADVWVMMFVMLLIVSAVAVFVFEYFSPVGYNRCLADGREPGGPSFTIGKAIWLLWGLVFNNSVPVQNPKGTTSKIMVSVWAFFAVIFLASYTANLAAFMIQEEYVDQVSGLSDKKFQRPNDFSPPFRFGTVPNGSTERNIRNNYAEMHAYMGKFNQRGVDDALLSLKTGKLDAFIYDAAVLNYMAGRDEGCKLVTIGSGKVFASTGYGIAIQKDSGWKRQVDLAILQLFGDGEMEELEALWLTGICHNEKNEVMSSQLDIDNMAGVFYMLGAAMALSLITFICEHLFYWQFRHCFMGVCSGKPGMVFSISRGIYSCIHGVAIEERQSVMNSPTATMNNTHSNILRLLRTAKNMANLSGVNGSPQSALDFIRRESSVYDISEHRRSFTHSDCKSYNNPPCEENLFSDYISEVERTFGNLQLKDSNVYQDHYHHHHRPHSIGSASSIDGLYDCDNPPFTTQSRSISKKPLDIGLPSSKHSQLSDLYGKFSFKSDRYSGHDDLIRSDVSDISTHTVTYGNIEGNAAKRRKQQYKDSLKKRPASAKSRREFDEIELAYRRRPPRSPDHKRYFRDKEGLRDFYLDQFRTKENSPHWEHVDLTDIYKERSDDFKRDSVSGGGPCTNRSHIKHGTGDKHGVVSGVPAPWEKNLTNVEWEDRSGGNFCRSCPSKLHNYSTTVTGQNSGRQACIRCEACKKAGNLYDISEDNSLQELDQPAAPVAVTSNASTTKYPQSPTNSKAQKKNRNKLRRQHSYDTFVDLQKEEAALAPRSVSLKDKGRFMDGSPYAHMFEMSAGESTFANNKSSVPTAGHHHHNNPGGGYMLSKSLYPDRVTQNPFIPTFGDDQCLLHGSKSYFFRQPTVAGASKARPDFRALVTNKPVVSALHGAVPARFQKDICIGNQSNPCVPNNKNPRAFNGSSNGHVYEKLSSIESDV
T2 sequence (P08183 whole entry): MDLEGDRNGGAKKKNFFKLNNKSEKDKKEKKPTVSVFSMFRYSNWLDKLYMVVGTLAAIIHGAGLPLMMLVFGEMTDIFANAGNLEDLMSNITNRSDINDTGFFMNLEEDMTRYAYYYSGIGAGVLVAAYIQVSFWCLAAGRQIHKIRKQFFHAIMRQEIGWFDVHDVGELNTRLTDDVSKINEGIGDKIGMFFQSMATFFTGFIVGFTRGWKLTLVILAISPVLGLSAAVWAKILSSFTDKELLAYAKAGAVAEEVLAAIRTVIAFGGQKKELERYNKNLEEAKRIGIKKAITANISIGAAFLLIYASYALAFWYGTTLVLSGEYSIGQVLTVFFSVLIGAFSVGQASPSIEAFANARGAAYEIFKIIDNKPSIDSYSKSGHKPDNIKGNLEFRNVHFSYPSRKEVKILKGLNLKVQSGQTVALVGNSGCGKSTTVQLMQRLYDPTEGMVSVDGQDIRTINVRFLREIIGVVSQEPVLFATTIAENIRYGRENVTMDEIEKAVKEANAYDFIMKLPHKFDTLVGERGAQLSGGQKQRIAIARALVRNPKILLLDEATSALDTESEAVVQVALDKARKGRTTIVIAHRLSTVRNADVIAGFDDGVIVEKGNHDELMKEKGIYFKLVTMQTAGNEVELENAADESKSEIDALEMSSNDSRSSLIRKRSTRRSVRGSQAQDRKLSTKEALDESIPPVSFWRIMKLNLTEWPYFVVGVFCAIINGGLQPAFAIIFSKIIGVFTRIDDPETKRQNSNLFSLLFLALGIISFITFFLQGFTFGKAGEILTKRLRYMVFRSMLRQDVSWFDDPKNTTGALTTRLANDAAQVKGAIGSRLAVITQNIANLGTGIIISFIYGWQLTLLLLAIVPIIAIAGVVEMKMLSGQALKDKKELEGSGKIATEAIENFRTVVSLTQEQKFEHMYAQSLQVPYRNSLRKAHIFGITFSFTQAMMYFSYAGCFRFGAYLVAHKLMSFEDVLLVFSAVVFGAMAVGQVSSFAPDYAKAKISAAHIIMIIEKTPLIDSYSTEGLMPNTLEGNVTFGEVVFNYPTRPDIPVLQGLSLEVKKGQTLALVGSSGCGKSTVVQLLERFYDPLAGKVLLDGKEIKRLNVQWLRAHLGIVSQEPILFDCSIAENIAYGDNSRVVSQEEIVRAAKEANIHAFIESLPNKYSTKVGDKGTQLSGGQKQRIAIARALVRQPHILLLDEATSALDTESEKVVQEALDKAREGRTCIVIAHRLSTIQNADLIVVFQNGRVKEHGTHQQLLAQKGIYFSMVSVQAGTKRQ

The IC50 is the concentration that gives 50% inhibition. In general, efflux ratio refers to a quotient of directional permeabilities that is used to spot active efflux. One may read the Papp A→B as the apparent permeability from the apical to the basolateral side of a cell layer. One may read the half-life as the time in which the quantity being followed falls by half. Consider `Cc1ccc(COC(=O)N2CCO[C@H](c3nc4nccnc4[nH]3)C2)c(F)c1` [Example 1], for which, at NMDA NR1/NR2B receptor, the IC50 was 90 nM. Also, on human MDR1 (P-gp), the efflux ratio at 2 h is 1.6 and the Papp A→B at 2 h amounted to 33 ×10⁻⁶ cm/s. In data set [1], the half-life at 1 μM was found to be 31.5 min.
On the same counts, the results for `Cc1cccc(COC(=O)N2CCO[C@H](c3nc4nccnc4[nH]3)C2)c1F` [Example 3] are 725 nM, 0.7, 61 ×10⁻⁶ cm/s and 8 min.
Take `O=C(OCc1ccccc1F)N1CCO[C@H](c2nc3nccnc3[nH]2)C1` [Example 4]: on NMDA NR1/NR2B receptor, the IC50 amounted to 382 nM. Besides, on human MDR1 (P-gp), the efflux ratio at 2 h amounted to 0.8 and the apical-to-basolateral permeability (Papp A→B) at 2 h is 57 ×10⁻⁶ cm/s. Further, the half-life at 1 μM in data set [1] is greater than 130 min.
The like results for `O=C(OCc1ccc(F)cc1F)N1CCO[C@H](c2nc3nccnc3[nH]2)C1` [Example 5] were, in that order, 477 nM, 1.4, 40 ×10⁻⁶ cm/s and greater than 130 min.
On the same counts, the results for `O=C(OCc1ccc(F)cc1)N1CCO[C@H](c2nc3nccnc3[nH]2)C1` [Example 10] are 735 nM, 2.9, 23 ×10⁻⁶ cm/s and greater than 130 min.
The like results for `Cc1ccc(COC(=O)N2CCO[C@H](c3nc4nccnc4[nH]3)C2)cc1` [Example 12] were, in that order, 210 nM, 1.8, 31 ×10⁻⁶ cm/s and 36 min.
